In patent publication US20240409585A1, “MACROCYCLIC IMMUNOMODULATORS” (priority 2021, published 2024):
Bridge positions count the residues as written; N and C are the ends. Square brackets hold non-standard residues; d marks the D form. Peptide text beside a SMILES is read from it. * marks the point of attachment. Bip(4'-COOH) = N[C@@H](Cc1ccc(-c2ccc(C(=O)O)cc2)cc1)C(=O)O; Bip(4'-NHAc) = CC(=O)Nc1ccc(-c2ccc(C[C@H](N)C(=O)O)cc2)cc1; Phe(3-CF3) = N[C@@H](Cc1cccc(C(F)(F)F)c1)C(=O)O; Ala(morpholin-4-yl) = N[C@@H](CN1CCOCC1)C(=O)O; Phe(4-COOH) = N[C@@H](Cc1ccc(C(=O)O)cc1)C(=O)O; Bip = N[C@@H](Cc1ccc(-c2ccccc2)cc1)C(=O)O; Phe(4-NH2) = Nc1ccc(C[C@H](N)C(=O)O)cc1; Abu(3R-NH2) = C[C@@H](N)[C@H](N)C(=O)O; Phe(3-Me) = Cc1cccc(C[C@H](N)C(=O)O)c1; hArg = N=C(N)NCCCC[C@H](N)C(=O)O; hPhe = N[C@@H](CCc1ccccc1)C(=O)O; Cha = N[C@@H](CC1CCCCC1)C(=O)O; Carboxymethyl = O=C(O)C*; NMeA = CN[C@@H](C)C(=O)O; Orn = NCCC[C@H](N)C(=O)O; Dab = NCC[C@H](N)C(=O)O

molecular target: T1, Alexa fluor-647 labeled human PD-L1-Ig binding to Jurkat cell line over-expressing human PD-1 (Homo sapiens, UniProt Q15116); experiment: Jurkat-PD-1 Cell Binding High-Content Screening Assay (CBA): Method 3 (Alexa fluor-647 labeled PD-L1-Ig); details: Jurkat-PD-1 cells, Alexa fluor-647 labeled PD-L1-Ig 177 nM; head μM; read-out: CBA Method 3 μM
T1 construct: expressed in transfected cells; host or cells: Jurkat
Method in brief: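 Readout by high-content imaging of PFA-fixed, Hoechst-stained cells after 1 h with 177 nM (final) Alexa fluor-647 PD-L1-Ig. Compound was added first to hPD-1 Jurkat cells in RPMI plus 10% FCS for 2 h at 37 °C.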

T1 sequence (Q15116 25-288): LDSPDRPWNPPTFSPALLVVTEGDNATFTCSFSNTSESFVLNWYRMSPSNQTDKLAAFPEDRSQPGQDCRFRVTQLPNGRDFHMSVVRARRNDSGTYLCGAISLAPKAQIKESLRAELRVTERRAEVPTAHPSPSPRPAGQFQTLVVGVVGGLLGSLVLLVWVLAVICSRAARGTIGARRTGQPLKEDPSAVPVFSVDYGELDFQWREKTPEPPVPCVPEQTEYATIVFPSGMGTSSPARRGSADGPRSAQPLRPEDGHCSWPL

Row | SMILES | IC50 [µM]
1 | Cc1cccc(C[C@@H]2NC(=O)[C@H](CC(=O)O)NC(=O)[C@H](Cc3ccc(-c4ccc(C(=O)O)cc4)cc3)NC(=O)[C@H](CN3CCOCC3)NC(=O)CSC[C@@H](C(=O)N[C@@H](CCN)C(N)=O)NC(=O)[C@H](CCC(=O)O)NC(=O)[C@H](C(C)C)NC(=O)[C@H](CC3CCCCC3)NC(=O)[C@H](CCN)NC(=O)[C@@H](CC(C)C)NC(=O)[C@H](C)N(C)C(=O)[C@H](Cc3ccc(C(=O)O)cc3)NC(=O)[C@H](Cc3ccc(-c4ccccc4)cc3)NC(=O)[C@H](Cc3ccc(-c4ccc(C(=O)O)cc4)cc3)NC2=O)c1 [Example 5093] ({CH2CO}-[Ala(morpholin-4-yl)][Bip(4'-COOH)]D[Phe(3-Me)][Bip(4'-COOH)][Bip][Phe(4-COOH)][NMeA][dL][Dab][Cha]VEC[Dab]-NH2; thioether N-14) | 0.16
2 | Cc1cccc(C[C@@H]2NC(=O)[C@H](CC(=O)O)NC(=O)[C@H](Cc3ccc(OCC(=O)O)cc3)NC(=O)[C@H](CC3CCCCC3)NC(=O)CSC[C@@H](C(=O)N[C@@H](CCN)C(N)=O)NC(=O)[C@H](CCC(=O)O)NC(=O)[C@H](C(C)C)NC(=O)[C@H](CC3CCCCC3)NC(=O)[C@H](CCN)NC(=O)[C@@H](CC(C)C)NC(=O)[C@H](C)N(C)C(=O)[C@H](CCC(N)=O)NC(=O)[C@H](Cc3ccc(-c4ccccc4)cc3)NC(=O)[C@H](CCc3ccccc3)NC2=O)c1 [Example 5214] ({CH2CO}-[Cha]Y(Carboxymethyl)D[Phe(3-Me)][hPhe][Bip]Q[NMeA][dL][Dab][Cha]VEC[Dab]-NH2; thioether N-14) | 0.03
3 | Cc1cccc(C[C@@H]2NC(=O)[C@H](CC(=O)O)NC(=O)[C@H](Cc3ccc(OCC(=O)O)cc3)NC(=O)[C@H](CC3CCCCC3)NC(=O)CSC[C@@H](C(=O)N[C@@H](CCN)C(N)=O)NC(=O)[C@H](CCCN)NC(=O)[C@H](C(C)C)NC(=O)[C@H](Cc3ccc(N)cc3)NC(=O)[C@H](CCN)NC(=O)[C@@H](CC(C)C)NC(=O)[C@H](C)N(C)C(=O)[C@H](CCC(N)=O)NC(=O)[C@H](Cc3ccc(-c4ccccc4)cc3)NC(=O)[C@H](Cc3ccc(C(=O)O)cc3)NC2=O)c1 [Example 5189] ({CH2CO}-[Cha]Y(Carboxymethyl)D[Phe(3-Me)][Phe(4-COOH)][Bip]Q[NMeA][dL][Dab][Phe(4-NH2)]V[Orn]C[Dab]-NH2; thioether N-14) | 0.33
4 | CC(=O)Nc1ccc(-c2ccc(C[C@@H]3NC(=O)[C@H](Cc4cccc(C)c4)NC(=O)[C@H](CC(=O)O)NC(=O)[C@H](Cc4ccc(C(=O)O)cc4)NC(=O)[C@H](CC4CCCCC4)NC(=O)CSC[C@@H](C(=O)N[C@@H](CCN)C(N)=O)NC(=O)[C@H](CCC(N)=O)NC(=O)[C@H](C(C)C)NC(=O)[C@H](CC4CCCCC4)NC(=O)[C@H](CCN)NC(=O)[C@@H](CC(C)C)NC(=O)[C@H](C)N(C)C(=O)[C@H](Cc4ccc(C(=O)O)cc4)NC(=O)[C@H](Cc4ccc(-c5ccccc5)cc4)NC3=O)cc2)cc1 [Example 5200] ({CH2CO}-[Cha][Phe(4-COOH)]D[Phe(3-Me)][Bip(4'-NHAc)][Bip][Phe(4-COOH)][NMeA][dL][Dab][Cha]VQC[Dab]-NH2; thioether N-14) | 0.02
5 | CC(C)C[C@H]1NC(=O)[C@H](C)N(C)C(=O)[C@H](CCC(N)=O)NC(=O)[C@H](Cc2ccc(-c3ccccc3)cc2)NC(=O)[C@H](CCc2ccccc2)NC(=O)[C@H](Cc2cccc(C(F)(F)F)c2)NC(=O)[C@H](CC(=O)O)NC(=O)[C@H](Cc2ccc(OCC(=O)O)cc2)NC(=O)[C@H]([C@@H](C)N)NC(=O)CSC[C@@H](C(=O)N[C@@H](CCN)C(N)=O)NC(=O)[C@H](CCC(N)=O)NC(=O)[C@H](C(C)C)NC(=O)[C@H](CC2CCCCC2)NC(=O)[C@H](CCN)NC1=O [Example 5223] ({CH2CO}-[Abu(3R-NH2)]Y(Carboxymethyl)D[Phe(3-CF3)][hPhe][Bip]Q[NMeA][dL][Dab][Cha]VQC[Dab]-NH2; thioether N-14) | 0.05

same assay, conditions: Jurkat-PD-1 cells, Alexa fluor-647 labeled PD-L1-Ig 177 nM; nM; read-out: CBA Method 3

Row | SMILES | IC50 [µM]
6 | Cc1cccc(C[C@@H]2NC(=O)[C@H](CC(=O)O)NC(=O)[C@H](Cc3ccc(OCC(=O)O)cc3)NC(=O)[C@H](CCCCN)NC(=O)CSC[C@@H](C(=O)N[C@@H](CCN)C(N)=O)NC(=O)[C@H](CCCN)NC(=O)[C@H](C(C)C)NC(=O)[C@H](CC3CCCCC3)NC(=O)[C@H](CCN)NC(=O)[C@@H](CC(C)C)NC(=O)[C@H](C)N(C)C(=O)[C@H](CCC(N)=O)NC(=O)[C@H](Cc3ccc(-c4ccccc4)cc3)NC(=O)[C@H](Cc3ccc(C(=O)O)cc3)NC2=O)c1 [Example 5181] ({CH2CO}-KY(Carboxymethyl)D[Phe(3-Me)][Phe(4-COOH)][Bip]Q[NMeA][dL][Dab][Cha]V[Orn]C[Dab]-NH2; thioether N-14) | 0.0038
7 | Cc1cccc(C[C@@H]2NC(=O)[C@H](CC(=O)O)NC(=O)[C@H](Cc3ccc(OCC(=O)O)cc3)NC(=O)[C@H](CCCCNC(=N)N)NC(=O)CSC[C@@H](C(=O)N[C@@H](CCN)C(N)=O)NC(=O)[C@H](CCCN)NC(=O)[C@H](C(C)C)NC(=O)[C@H](CC3CCCCC3)NC(=O)[C@H](CCN)NC(=O)[C@@H](CC(C)C)NC(=O)[C@H](C)N(C)C(=O)[C@H](CCC(N)=O)NC(=O)[C@H](Cc3ccc(-c4ccccc4)cc3)NC(=O)[C@H](Cc3ccc(C(=O)O)cc3)NC2=O)c1 [Example 5184] ({CH2CO}-[hArg]Y(Carboxymethyl)D[Phe(3-Me)][Phe(4-COOH)][Bip]Q[NMeA][dL][Dab][Cha]V[Orn]C[Dab]-NH2; thioether N-14) | 0.0011
8 | Cc1cccc(C[C@@H]2NC(=O)[C@H](CC(=O)O)NC(=O)[C@H](Cc3ccc(OCC(=O)O)cc3)NC(=O)[C@H](Cc3ccc(O)cc3)NC(=O)CSC[C@@H](C(=O)N[C@@H](CCN)C(N)=O)NC(=O)[C@H](CCCN)NC(=O)[C@H](C(C)C)NC(=O)[C@H](CC3CCCCC3)NC(=O)[C@H](CCN)NC(=O)[C@@H](CC(C)C)NC(=O)[C@H](C)N(C)C(=O)[C@H](CCC(N)=O)NC(=O)[C@H](Cc3ccc(-c4ccccc4)cc3)NC(=O)[C@H](Cc3ccc(C(=O)O)cc3)NC2=O)c1 [Example 5271] ({CH2CO}-YY(Carboxymethyl)D[Phe(3-Me)][Phe(4-COOH)][Bip]Q[NMeA][dL][Dab][Cha]V[Orn]C[Dab]-NH2; thioether N-14) | 0.001
